Here are results for 3 compounds from patent US5646132A, “2(1H)-quinolone compounds” (Adir et Compagnie, priority 1993, dated 1997).

The structures appear in SMILES notation.

Broadly, the Ki is a dissociation constant, usually derived from enzyme kinetics or from competition with a known ligand. The IC50 is the concentration at which inhibition is half-maximal.

For series [1], the target named is AMPA receptor. Briefly: Membrane binding, [3H]-AMPA, rat cortex homogenate. Particulars: rat cortex membranes. How it is done: This is carried out using a rat cortex homogenate. The membrane pellet is prepared in a conventional manner in a sucrose buffer by differential centrifugations, and then frozen until used. After thawing, […] of membrane homogenate are taken up in a Tris-HCl (30 mM), CaCl2 (2.5 mM) buffer, pH 7.4, and incubated at 4° C. for 30 minutes in the presence of 25 μl of [^3 H]-AMPA or [^3 H]-kainate and 25 μl of the test product. Non-specific binding is determined in the presence of 10 μM quisqualate (AMPA binding) or 10 μM kainic acid (kainate binding). The membranes are then isolated by filtration. After drying of the filters, the radioactivity is measured by scintillation.

Series [2] has as its system audiogenic (glutamate-dependent) convulsions in DBA/2 mice. The series is described as follows: Audiogenic convulsions test in DBA/2 mice. In kind it is in vivo, mouse (DBA/2). The note with it: for activity by the oral route, audiogenic convulsions: oral administration. The text has this: (§1) Furthermore, the compounds of the invention have an in vivo activity which is unique and exceptional for the products of this class. In fact, in the audiogenic convulsions test in DBA/2 mice carried out according to the methodology described by CROUCHER et al.

For series [3], the system named is Kainate current (glutamate receptors; AMPA/kainate receptors). Briefly: Currents induced by kainate in Xenopus oocytes expressing the glutamate receptors. In kind it is cell-based, rat. Particulars: kainate 100 μM, read-out: IC50, inhibition of kainate current. How it is done:
2/ Currents induced by EAA in Xenopus oocytes
Xenopus oocytes are injected with 50 ng of poly(A)^+ mRNA isolated from rat cerebral cortex, and incubated for 2 to 3 days at 18° C. to permit protein expression therein. The inward currents induced by EAA are measured in a medium of composition: NaCl (82.5 mM), KCl (2.5 mM), CaCl2 (1 mM), MgCl2 (1 mM), NaH2 PO4 (1 mM), HEPES (5 mM), pH 7.4, by the 2-electrode voltage-clamp method (potential=-60 mV). For measurement of the currents induced by NMDA and glycine, MgCl2 is absent from the medium and CaCl2 is brought to a concentration of 2 mM. The EAA agonists that induce the currents are used at the following concentrations: kainate: 100 μm; AMPA: 30 μM; glycine/NMDA: 3/30 μM. The test product is applied 30 seconds before and during the application of the agonist.

For series [4], the system named is neurotoxic excitatory currents in the hippocampus. The series is described as follows: Neurotoxic excitatory currents induced in the hippocampus by stimulation of the glutamatergic pathways (Schaeffer's collaterals). Particulars: read-out: IC50 with respect to neurotoxic excitatory currents induced in the hippocampus. How it is done:
This inhibition is strong and constant since the same IC50 (2 μM) is found with respect to neurotoxic excitatory currents induced in the hippocampus by stimulation of the glutamatergic pathways (Schaeffer's collaterals).

Series [5] is described as follows: Audiogenic convulsions test in DBA/2 mice. In kind it is in vivo, mouse (DBA/2). Particulars: mouse, in vivo, IP vs PO.
Text: as §1

Series [6] relates to hippocampal pyramidal neurons (CA1). Briefly: Transient global cerebral ischemia in Gerbil. In kind it is in vivo. On the procedure:
1) Transient global cerebral ischemia in Gerbil
Transient and complete arrest of cerebral blood flow which is observed in clinical situation during a cardiac infarct, gives rise to a delayed death of specific vulnerable neurons, especially in hippocampus, a crucial cerebral region for cognitive functions. This phenomenon can be experimentally reproduced after transient occlusion of common carotid arteries.
In Gerbil, a transient occlusion (5 minutes) of carotid arteries gives rise to a total loss of hippocampal pyramidal neurons (CA1). This death can be observed only 3 or 4 days after ischemia. Numerous studies have shown that it could be due essentially to an excessive release of glutamate during the post-ischemic reperfusion.
NBQX (30 mg/kg IP) protects 50% of neurons in case of treatment 30 minutes before then b.i.d. after ischemia until histological measurement 4 days later.

Series [7] concerns cortical infarct. The series is described as follows: Permanent focal ischemia in mice (MCA occlusion). In kind it is in vivo. How it is done: 2) Permanent focal ischemia in mice
This ischemia can be perfectly reproduced in mice by electrocoagulation of MCA, giving rise to a well delimited cortical infarct 24 hours later. This infarct can be easily measured by histological examination.

The mark [8] stands for this setting: 30 mg/kg IP, 30 minutes before then b.i.d. after ischemia, histology 4 days later.
[9] abbreviates: 30 mg/kg IP before then 3 hours after ischemia, significant decrease.
Where [10] appears, read: 30 mg/kg, curative only (5 minutes, 1 hour and 2 hours after MCA occlusion).

`N#Cc1cc2[nH]c(=O)c(=O)[nH]c2cc1[N+](=O)[O-]` [CNQX, 6-cyano-7-nitro-2,3-quinoxalinedione, reference compound] came in with an inhibition constant (Ki) in series [1] of 0.07 µM. Further, the “activity by the oral route, audiogenic convulsions” value (from here on “activity by the oral route”) in series [2] is given as “do not have any activity by the oral route”.

In series [1], `O=c1[nH]c2cc(Cl)c(Cl)cc2cc1P(=O)(O)O` [Example 2, 6,7-Dichloro-2(1H)-quinolone-3-phosphonic acid] registered a Ki of 0.9 µM. In addition, the IC50 in series [3] and in series [4] was 2 µM throughout. The compound also registered a bioavailability index (ID50 IP/ID50 PO) in series [5] of around 0.3. Besides, the ED50 in series [2] (Mus musculus, IP administration, read-out: ID50, audiogenic convulsions) amounted to 18.7 mg/kg. For the same compound, in series [2], the “activity by the oral route” value was “also after oral administration”. For the same compound, the “protection of hippocampal neurons” value in series [6] (10 mg/kg IP, same conditions) worked out at 50%. Also, the “protection from neuronal death (in words)” value in series [6] (setting [8]) is “protects completely from neuronal death”. Also, the results for the “change of infarct volume” value in series [7] (setting [9]) and in series [7] (setting [10]) were -26% and -23%, respectively.

As to `NS(=O)(=O)c1cccc2c1c([N+](=O)[O-])cc1[nH]c(=O)c(=O)[nH]c12` [NBQX, 6-nitro-7-sulfamoylbenzo[f]quinoxaline-2,3-dione, reference compound], the “activity by the oral route” value in series [2] is recorded as “do not have any activity by the oral route”. The compound further returned a protection of neurons in series [6] (setting [8]) of 50%. The “change of infarct volume” value in series [7] (setting [9]) is reported as -26%. Further, in series [7] (setting [10]), the “effect on infarct volume (in words)” value is reported as “remains ineffective”.
